{
  "source": "patent US6342484B1",
  "about": "“Method and compositions for promotion of wound treatment” (Board of Regents, The University of Texas Systems, priority 1993, dated 2002)",
  "key": {"[1]": {"test_system": "4mm punch wound in Balb/c mice", "test": "Topical applications on 4 mm punch wounds, visual contraction of wounds (Example 5)", "assay_type": "in vivo, mouse", "conditions": "for Relative efficacy (wound contraction): topical agent on wound, uracil 100 μM, two weeks", "protocol": "Balb/c mice were divided into three dietary groups (F=normal mouse chow; NF=nucleotide free mouse chow; and NFR=nucleotide free mouse chow supplemented with yeast RNA). Each group was fed before initiation of wounds. After 4 weeks of feeding, a 4mm punch wound was created on the dorsal surface of each mouse, using a 4mm biopsy punch. The wounds were coated with four different topical agents: 1) saline; 2) uracil {100 μM concentration); 3) saline+CCM; and 4) Uracil+CCM (CCM=crosslinked collagen mesh). CCM is ‘Collagen Permeable Membrane’ from Accurate Chemical & Scientific Corporation, catalog no. YIC 152299. Four mm size circles were soaked with appropriate nucleotide or saline solution (4mm punch wounds) and used to dress the wounds.\nTwelve groups were formed from these combinations (n=3). Mice were continued on their respective diets. Wounds were observed visually and photographed at four different times during the experimental period of two weeks.\nA record was made of the progressive contraction of the wounds and area among the various dietary and treatment groups."}, "[2]": {"test_system": "wound cylinder of PTFE in Balb/C mice", "test": "Wound hydroxyproline content in PTFE wound cylinder, adenine/uracil/RNA diets (Example 2, FIG. 1)", "assay_type": "in vivo, mouse", "conditions": "for amount of OHP/cm PTFE over both the nucleotide free and the non-supplemented diets: diet at least 30 days before implantation, tenth post-operative day", "text": "Twenty-five Balb/C mice were divided into five test groups (n=5) and housed in groups in the animal care facilities. Each group received one of the following diets ad libertum: F—normal mouse chow, NF—nucleotide free diet, NFR—yeast RNA supplemented diet, NFA—adenine supplemented diet, and NFU—uracil supplemented diet. All groups received these diets for at least 30 days prior to wound cylinder implantation. All animals received water ad libitum.\nPolytetrafluorethylene (PTFE, Impra Vascular Graft, 3 mm lumen, […]) wound cylinders (1.5 cm long) were placed subcutaneously in the dorsal midline of each animal under general anesthesia (Methoxyflurane, inhalation). All animals were continued on their test diets. On the tenth post-operative day, all animals were euthanized by cervical dislocation and the would cylinders were removed for analysis.\nWound cylinders were analyzed for hydroxyproline (OHP) content using the method of Woessner. Briefly, approximately 1 cm segments of the wound cylinders were hydrolyzed in 0.5 ml 6 N HCl for 3 hours at 130 C. Samples were cooled and 0.5 ml aliquots were neutralized with the appropriate volume of 1 N NaOH. Each sample was diluted to 5.25 ml with H2O in order to reduce the total NaCl concentration to below 0.4 M. Each sample was then reacted as described by Woessner."}},
  "data": [
    {"compound": "OC[C@H]1O[C@@H](n2cnc3c(O)ncnc32)[C@H](O)[C@@H]1O", "note": "[inosine]", "values": [
      {"measurement": "results compared with uracil as topical agent", "setting": "[1]; 100 μM as topical agent in place of uracil", "result": "no significant differences"}
    ]},
    {"compound": "O=c1cc[nH]c(=O)[nH]1", "note": "[uracil]", "values": [
      {"measurement": "Relative efficacy (wound contraction)", "setting": "[1]; Diet F (normal mouse chow)", "result": "moderate"},
      {"measurement": "Relative efficacy (wound contraction)", "setting": "[1]; Diet NF (nucleotide free chow)", "result": "minimal"},
      {"measurement": "Relative efficacy (wound contraction)", "setting": "[1]; Diet NFR (yeast RNA supplemented)", "result": "moderate"},
      {"measurement": "amount of OHP/cm PTFE over both the nucleotide free and the non-supplemented diets", "setting": "[2]", "result": "increased"}
    ]},
    {"compound": "Nc1ncnc2nc[nH]c12", "note": "[Adenine, adenine]", "values": [
      {"measurement": "fold increase of the amount of OHP in the wound", "setting": "[2]", "result": "close to two times"},
      {"measurement": "significance of OHP increase over the non-supplemented diet", "setting": "[2]", "result": "statistically significant"},
      {"measurement": "significance of OHP increase over the nucleotide free diet", "setting": "[2]", "result": "significant"},
      {"measurement": "amount of OHP/cm PTFE over both the nucleotide free and the non-supplemented diets", "setting": "[2]", "result": "increased"}
    ]}
  ]
}
